melting point: 195 to 198 °C
Structure (SMILES): CC(C)(C)c1cc(NC(=O)Nc2cccc(Cl)c2Cl)c(-c2ccncc2)o1 [Entry 38, N-(2-(4-Pyridinyl)-5-tert-butyl-3-furyl)-N′-(2,3-dichlorophenyl)urea]
